Tests used:
[1] = DRUGMATRIX: Purinergic P2X radioligand binding (ligand: [3H] alpha, beta-Methylene-ATP); assay type: cell membranes, Oryctolagus cuniculus, New Zealand albino, Urinary bladder, Membrane; settings: Not Active = under 50% inhibition at 10 µM
[2] = DRUGMATRIX: GABAA, Chloride Channel, TBOB radioligand binding (ligand: [3H] TBOB); assay type: cell membranes, Rattus norvegicus, Wistar, Cerebral cortex, Membrane; settings: Not Active = under 50% inhibition at 10 µM
[3] = molecular target: Beta-3 adrenergic receptor (Homo sapiens, UniProt P13945); assay: DRUGMATRIX: Adrenergic beta3 radioligand binding (ligand: [125I] Cyanopindolol); assay type: cell membranes, HEK293, Membrane; settings: hek293; Not Active = under 50% inhibition at 10 µM
D(1A) dopamine receptor = D(1A) dopamine receptor (Homo sapiens, UniProt P21728); assay: DRUGMATRIX: Dopamine D1 radioligand binding (ligand: [3H] SCH-23390); assay type: cell membranes, CHO, Membrane; settings: cho; Not Active = under 50% inhibition at 10 µM
[4] = DRUGMATRIX: ATPase, Na+/K+ enzyme inhibition (substrate: ATP); assay type: tissue-based, Sus scrofa, Heart; settings: Not Active = under 50% inhibition at 10 µM
D(4) dopamine receptor = molecular target: T1, D(4) dopamine receptor (Homo sapiens, UniProt P21917); assay: DRUGMATRIX: Dopamine D4.2 radioligand binding (ligand: [3H] Spiperone); assay type: cell membranes, CHO-K1, Membrane; settings: cho-k1; Not Active = under 50% inhibition at 10 µM
T1 sequence (P21917 whole entry): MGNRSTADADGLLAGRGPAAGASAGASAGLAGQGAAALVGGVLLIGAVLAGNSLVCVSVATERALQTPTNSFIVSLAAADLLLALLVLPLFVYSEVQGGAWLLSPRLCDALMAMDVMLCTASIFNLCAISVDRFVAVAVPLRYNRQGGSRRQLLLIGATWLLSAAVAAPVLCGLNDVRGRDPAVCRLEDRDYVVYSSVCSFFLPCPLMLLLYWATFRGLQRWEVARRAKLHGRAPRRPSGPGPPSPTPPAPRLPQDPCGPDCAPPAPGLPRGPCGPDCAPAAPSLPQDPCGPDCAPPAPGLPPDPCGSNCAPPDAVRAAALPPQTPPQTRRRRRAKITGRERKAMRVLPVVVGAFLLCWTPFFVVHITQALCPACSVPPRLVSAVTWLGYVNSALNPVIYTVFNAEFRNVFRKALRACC

[5] = molecular target: C-C chemokine receptor type 5 (Homo sapiens, UniProt P51681); assay type: cell membranes, Membrane; settings: hek293; note: in other assays of this panel Not Active means under 50% inhibition at 10 µM
Sequence of C-C chemokine receptor type 5 (P51681 whole entry): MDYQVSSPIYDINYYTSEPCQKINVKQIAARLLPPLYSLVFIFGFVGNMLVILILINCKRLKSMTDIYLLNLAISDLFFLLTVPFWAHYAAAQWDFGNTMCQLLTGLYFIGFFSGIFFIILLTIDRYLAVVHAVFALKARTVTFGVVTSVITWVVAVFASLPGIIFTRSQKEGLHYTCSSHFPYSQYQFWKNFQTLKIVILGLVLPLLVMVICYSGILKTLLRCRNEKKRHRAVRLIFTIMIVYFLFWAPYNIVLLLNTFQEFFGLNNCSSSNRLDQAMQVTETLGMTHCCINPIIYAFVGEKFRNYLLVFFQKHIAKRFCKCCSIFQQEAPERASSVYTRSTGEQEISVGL

Sequence of Beta-3 adrenergic receptor (P13945 whole entry): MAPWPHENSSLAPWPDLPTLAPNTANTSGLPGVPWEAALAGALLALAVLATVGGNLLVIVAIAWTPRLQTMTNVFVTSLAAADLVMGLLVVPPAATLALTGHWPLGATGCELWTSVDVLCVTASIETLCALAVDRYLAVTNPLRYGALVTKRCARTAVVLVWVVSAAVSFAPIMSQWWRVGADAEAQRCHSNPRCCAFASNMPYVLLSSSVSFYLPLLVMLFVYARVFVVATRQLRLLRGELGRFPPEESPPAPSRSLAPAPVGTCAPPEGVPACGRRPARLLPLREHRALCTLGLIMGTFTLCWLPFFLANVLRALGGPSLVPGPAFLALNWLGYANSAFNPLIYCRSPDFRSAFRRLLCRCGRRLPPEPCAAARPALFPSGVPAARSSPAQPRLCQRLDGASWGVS
Sequence of D(1A) dopamine receptor (P21728 whole entry): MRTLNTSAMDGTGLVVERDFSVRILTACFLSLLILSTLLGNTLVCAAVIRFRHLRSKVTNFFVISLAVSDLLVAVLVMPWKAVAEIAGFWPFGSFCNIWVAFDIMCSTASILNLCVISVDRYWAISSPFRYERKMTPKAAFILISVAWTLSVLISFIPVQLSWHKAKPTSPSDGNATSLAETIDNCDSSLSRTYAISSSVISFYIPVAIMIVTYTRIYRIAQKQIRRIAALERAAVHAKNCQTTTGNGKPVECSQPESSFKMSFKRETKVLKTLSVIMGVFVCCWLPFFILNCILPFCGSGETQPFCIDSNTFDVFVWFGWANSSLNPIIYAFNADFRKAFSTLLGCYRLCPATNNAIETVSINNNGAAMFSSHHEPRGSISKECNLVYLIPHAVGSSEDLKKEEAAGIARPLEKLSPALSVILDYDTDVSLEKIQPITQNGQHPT

CO[C@@]1(NC(=O)CSCC#N)C(=O)N2C(C(=O)O)=C(CSc3nnnn3C)CS[C@@H]21 [CEFMETAZOLE]
Not Active: IC50 [1] | Ki [1] | IC50 [2] | Ki [2] | IC50 [3] | IC50 (D(1A) dopamine receptor) | IC50 [4] | Ki [4] | IC50 (D(4) dopamine receptor) | IC50 [5]

CC(=O)O[C@]1(C(C)=O)CC[C@H]2[C@@H]3C=C(C)C4=CC(=O)CC[C@]4(C)[C@H]3CC[C@@]21C [MEGESTROL ACETATE]
Not Active: IC50 [1] | Ki [1] | IC50 [2] | Ki [2] | IC50 [3] | IC50 (D(1A) dopamine receptor) | IC50 [4] | Ki [4] | IC50 (D(4) dopamine receptor) | IC50 [5]

COc1cc(CNC(=O)CCCC/C=C/C(C)C)ccc1O [CAPSAICIN]
Not Active: IC50 [1] | Ki [1] | IC50 [2] | Ki [2] | IC50 [3] | IC50 (D(1A) dopamine receptor) | IC50 [4] | Ki [4] | IC50 (D(4) dopamine receptor) | IC50 [5]

CC[C@H](C)C(=O)O[C@H]1C[C@@H](C)C=C2C=C[C@H](C)[C@H](CC[C@@H]3C[C@@H](O)CC(=O)O3)[C@H]21 [LOVASTATIN]
Not Active: IC50 [1] | Ki [1] | IC50 [2] | Ki [2] | IC50 [3] | IC50 (D(1A) dopamine receptor) | IC50 [4] | Ki [4] | IC50 (D(4) dopamine receptor) | IC50 [5]

O=C(c1ccccc1Cl)N1CCC(Cc2ccccc2)CC1
Not Active: IC50 [1] | Ki [1] | IC50 [2] | Ki [2] | IC50 [3] | IC50 (D(1A) dopamine receptor) | IC50 [4] | Ki [4] | IC50 (D(4) dopamine receptor) | IC50 [5]

CCOC(=O)[C@H](CCc1ccccc1)N[C@@H](C)C(=O)N1Cc2ccccc2C[C@H]1C(=O)O
Not Active: IC50 [1] | Ki [1] | IC50 [2] | Ki [2] | IC50 [3] | IC50 (D(1A) dopamine receptor) | IC50 [4] | Ki [4] | IC50 (D(4) dopamine receptor) | IC50 [5]

CC[C@H]1OC(=O)[C@H](C)[C@@H](O[C@H]2C[C@@](C)(OC)[C@@H](O)[C@H](C)O2)[C@H](C)[C@@H](O[C@@H]2O[C@H](C)C[C@H](N(C)C)[C@H]2O)[C@](C)(O)C[C@@H](C)CN(C)[C@H](C)[C@@H](O)[C@]1(C)O [AZITHROMYCIN]
Not Active: IC50 [1] | Ki [1] | IC50 [2] | Ki [2] | IC50 [3] | IC50 (D(1A) dopamine receptor) | IC50 [4] | Ki [4] | IC50 (D(4) dopamine receptor) | IC50 [5]

Cc1cccc(Nc2ccccc2C(=O)O)c1C [MEFENAMIC ACID]
Not Active: IC50 [1] | Ki [1] | IC50 [2] | Ki [2] | IC50 [3] | IC50 (D(1A) dopamine receptor) | IC50 [4] | Ki [4] | IC50 (D(4) dopamine receptor) | IC50 [5]

COC(=O)c1ccccc1O [METHYL SALICYLATE]
Not Active: IC50 [1] | Ki [1] | IC50 [2] | Ki [2] | IC50 [3] | IC50 (D(1A) dopamine receptor) | IC50 [4] | Ki [4] | IC50 (D(4) dopamine receptor) | IC50 [5]

CC[C@H](C)C(=O)O[C@H]1C[C@H](O)C=C2C=C[C@H](C)[C@H](CC[C@@H](O)C[C@@H](O)CC(=O)O)[C@H]21 [PRAVASTATIN]
Not Active: IC50 [1] | Ki [1] | IC50 [2] | Ki [2] | IC50 [3] | IC50 (D(1A) dopamine receptor) | IC50 [4] | Ki [4] | IC50 (D(4) dopamine receptor) | IC50 [5]

N[C@@H](Cc1ccc(F)cc1)C(=O)O
Not Active: IC50 [1] | Ki [1] | IC50 [2] | Ki [2] | IC50 [3] | IC50 (D(1A) dopamine receptor) | IC50 [4] | Ki [4] | IC50 (D(4) dopamine receptor) | IC50 [5]

C[C@]12C/C(=C/O)C(=O)C[C@@H]1CC[C@@H]1[C@@H]2CC[C@@]2(C)[C@H]1CC[C@]2(C)O [OXYMETHOLONE]
Not Active: IC50 [1] | Ki [1] | IC50 [2] | Ki [2] | IC50 [3] | IC50 (D(1A) dopamine receptor) | IC50 [4] | Ki [4] | IC50 (D(4) dopamine receptor) | IC50 [5]

Clc1cc2c(cc1Cl)Oc1cc(Cl)c(Cl)cc1O2 [2,3,7,8-TETRACHLORODIBENZO-P-DIOXIN]
Not Active: IC50 [1] | Ki [1] | IC50 [2] | Ki [2] | IC50 [3] | IC50 (D(1A) dopamine receptor) | IC50 [4] | Ki [4] | IC50 (D(4) dopamine receptor) | IC50 [5]

OCCO [ETHYLENE GLYCOL]
Not Active: IC50 [1] | Ki [1] | IC50 [2] | Ki [2] | IC50 [3] | IC50 (D(1A) dopamine receptor) | IC50 [4] | Ki [4] | IC50 (D(4) dopamine receptor) | IC50 [5]

NC[C@H]1O[C@H](O[C@H]2[C@H](O)[C@@H](O[C@H]3O[C@H](CO)[C@@H](O)[C@H](N)[C@H]3O)[C@H](N)C[C@@H]2N)[C@H](O)[C@@H](O)[C@@H]1O [KANAMYCIN]
Not Active: IC50 [1] | Ki [1] | IC50 [2] | Ki [2] | IC50 [3] | IC50 (D(1A) dopamine receptor) | IC50 [4] | Ki [4] | IC50 (D(4) dopamine receptor) | IC50 [5]

O=C(/C=C/c1ccc(O)c(O)c1)OCCc1ccccc1 [CAFFEIC ACID PHENETHYL ESTER]
Not Active: IC50 [1] | Ki [1] | IC50 [2] | Ki [2] | IC50 [3] | IC50 (D(1A) dopamine receptor) | IC50 [4] | Ki [4] | IC50 (D(4) dopamine receptor) | IC50 [5]

NC[C@@H]1O[C@H](O[C@H]2[C@@H](O)[C@H](O[C@@H]3[C@@H](O)[C@H](N)C[C@H](N)[C@H]3O[C@H]3O[C@H](CN)[C@@H](O)[C@H](O)[C@H]3N)O[C@@H]2CO)[C@H](N)[C@@H](O)[C@@H]1O [FRAMYCETIN]
Not Active: IC50 [1] | Ki [1] | IC50 [2] | Ki [2] | IC50 [3] | IC50 (D(1A) dopamine receptor) | IC50 [4] | Ki [4] | IC50 (D(4) dopamine receptor) | IC50 [5]

CCCCCC[C@H]1C(=O)O[C@H](C)[C@H](NC(=O)c2cccc(NC=O)c2O)C(=O)O[C@@H](C)[C@@H]1OC(=O)CC(C)C [ANTIMYCIN A]
Not Active: IC50 [1] | Ki [1] | IC50 [2] | Ki [2] | IC50 [3] | IC50 (D(1A) dopamine receptor) | IC50 [4] | Ki [4] | IC50 (D(4) dopamine receptor) | IC50 [5]

Oc1ccccc1O [CATECHOL]
Not Active: IC50 [1] | Ki [1] | IC50 [2] | Ki [2] | IC50 [3] | IC50 (D(1A) dopamine receptor) | IC50 [4] | Ki [4] | IC50 (D(4) dopamine receptor) | IC50 [5]

Cc1c(F)c(N2CCNC(C)C2)cc2c1c(=O)c(C(=O)O)cn2C1CC1 (stereo not given) [GREPAFLOXACIN]
Not Active: IC50 [1] | Ki [1] | IC50 [2] | Ki [2] | IC50 [3] | IC50 (D(1A) dopamine receptor) | IC50 [4] | Ki [4] | IC50 (D(4) dopamine receptor) | IC50 [5]

Reference: ChEMBL document CHEMBL1909046, “DrugMatrix in vitro pharmacology data”
